These results are taken from paper PMC11071266, “The putative proton-coupled organic cation antiporter is involved in uptake of triptans into human brain capillary endothelial cells” (Fluids and Barriers of the CNS, 2024).

“Also recorded” adds a separate entry of the source. Like-named read-outs stand apart in the source and are kept apart here.

For orientation: Km means the substrate concentration at which the rate is half of its maximum. A word on the IC50: it is the concentration that gives 50% inhibition. As a reminder, the Papp A→B is the apparent permeability from the apical to the basolateral side of a cell layer. A high value points to ready permeation. As a reminder, the Papp B→A is how fast a substance crosses the layer from the basolateral side. The efflux ratio is a quotient of directional permeabilities that is used to spot active efflux.

Data set [1] can be described thus: Physicochemical properties extracted from databases. The source says: Triptans are a relatively homogeneous group of drug compounds with similar physicochemical properties, including molecular weights < 400 g/mol and a low to moderate lipophilicity (cLogD values ranging from − 2.1–0.18). […] As a consequence, it is unlikely that triptans cross the brain microvascular endothelium through passive diffusion to a clinically relevant extent. Table 1 summarizes structures and physicochemical properties of the triptans, as well as oxycodone and pyrilamine, which are two prototypical H^+/OC antiporter substrates included in this study.

For data set [2], the system named is H^+/OC antiporter. The data set can be described thus: Concentration-dependent cellular uptake into hCMEC/D3 cells (Michaelis-Menten kinetics). It counts as cell-based, human. The procedure: (§1) The immortalized human cerebral microvascular endothelial cell line (hCMEC/D3) was maintained in T75-flasks coated with collagen type I from calf skin (C9791, 18.7 μg/mL) and cultured in EBM®-2 medium (Lonza, Basel, Schweiz) supplemented with 5% (v/v) fetal bovine serum (FBS, 10270, Life Technologies, CA, USA or SH3008803, ThermoFisher Scientific, MA, USA), 100 U/mL penicillin and 100 μg/ml streptomycin, 1 ng/mL human basic fibroblast growth factor (bFGF), 1.4 μM hydrocortisone, 1% (v/v) chemically defined lipid concentrate (ThermoFisher Scientific, MA, USA), 10 mM N-2-hydroxyethylpiperazine-N-2-ethane sulfonic acid (HEPES) and 5 μg/mL ascorbic acid (5% CO2, 37 °C). […] For experiments, cells were seeded into 24-well plates (6.7·10^4 cells/cm^2) and cultured for four continuous days. The cells were used for experiments between passage 3–31.
(§2) The cells were equilibrated in hHBSS with or without inhibitor for 15 min (37 °C, 90 rpm). The compound of interest was spiked into the hHBSS followed by incubation for a designated time. The timeframe of the initial uptake rate was validated into hCMEC/D3 cells (Fig. 1 and Additional file 1). The experiment was terminated by washing three times with ice-cold HBSS supplemented with 0.0375% (v/v) sodium bicarbonate.
To assess the concentration-dependent uptake, the uptake flux was fitted to the Michaelis–Menten equation, Eq. 1.1 Jss=Jmax[S]/Km+[S] where Jss represents flux under steady state, Jmax is the maximal flux, [S] is the substrate concentration, and Km is the Michaelis–Menten constant.
The hCMEC/D3 cells were used for concentration-dependent uptake studies between passage 21–23 (pyrilamine), 11–13 (oxycodone), 12–14 (almotriptan), 16–18 (eletriptan), and 12–14 (sumatriptan).
(§3) The cells were permeabilized using 50% (v/v) acetonitrile (HPLC LC–MS grade, VWR International S.A.S, Soeborg, Denmark) in ultrapure water (ELGA, Buckinghamshire, England) for 10 min at room temperature. Thereafter, the cells were scraped off the bottom of the wells and transferred to HPLC vials. Samples from bidirectional transport experiments were transferred directly into HPLC vials. All samples were stored at – 18 °C for later analysis. Calibration curves with standards in the range of 1 or 5–1000 ng/mL were dissolved in 50% (v/v) acetonitrile in ultrapure water (ELGA, Buckinghamshire, England), or in hHBSS(-) for analysis of bidirectional transport samples.
(§4) Liquid chromatography tandem mass spectrometry (LC–MS/MS) were performed using electrospray ionization in positive mode on a micromass Quattro micro™ API tandem quadrupole mass spectrometer (Waters, MA, USA) or an Ultivo triple quadrupole mass spectrometer (Agilent Technologies, CA, USA) coupled to Agilent HPLC system 1100 Series or 1260 Series (Agilent Technologies, CA, USA California), respectively. Applied columns were an InfinityLab Poroshell 120 EC-C18 (3.0 × 50 mm; 2.7 micron, Agilent Technologies, CA, USA) or a Kinetex 2.6 μm XB-C18 (100 Å, 100 × 4.6 mm, Phenomenex Inc., CA, USA). An overview of applied HPLC and MS/MS parameters can be found in Additional file 2 and Additional file 3, respectively. The data acquisition software was MassLynx (V4.1, Waters, MA, USA).
The protein content of hCMEC/D3 cells was determined for normalization purposes. Cells were washed with ice-cold phosphate buffered saline following cell lysis in cell extraction buffer (FNN0011, Thermo Fisher Scientific, MA, USA) supplemented with 1 × cOmplete™ Protease Inhibitor Cocktail (04693116001, Roche, Basel, Schweiz), 1 mM phenylmethylsulfonyl fluoride, and […] for 30 min on ice.

Data set [3] concerns H^+/OC antiporter. The data set can be described thus: Inhibition of [^3H]-pyrilamine uptake into hCMEC/D3 cells. It counts as cell-based, human. To be noted: [^3H]-pyrilamine 1 µCi/mL, 48 nM, read-out: Apparent IC50 on [^3H]-pyrilamine uptake. As for the experimental part:
as §1, §2
The inhibitory constant at 50% inhibition (IC50) was determined by fitting the uptake flux (Jss) as function of the logarithmic inhibitor concentration to Eq. 2.2 Jss=Jmin+(Jmax-Jmin)/1+10^logIC50-InH where [I] is the inhibitor concentration, nH is the Hill coefficient.
The hCMEC/D3 cells were used for [^3H]-pyrilamine inhibition studies between passage 3–6 (pyrilamine, oxycodone), 16–18 (almotriptan), 7–13 (eletriptan), 25–27 (frovatriptan), 3–8 (naratriptan), 16–18 (rizatriptan), 12–14 (sumatriptan), and 14–16 (zolmitriptan).
The cells were permeabilized using 0.1% (v/v) Triton X-100 in ultrapure water (ELGA, Buckinghamshire, England) for 10 min at room temperature. Thereafter, the cells were scraped off the bottom of the wells, transferred to scintillation vials, and mixed with 2 mL of Ultima Gold 241 TM (Perkin Elmer, MA, USA). The samples were analyzed using a Tri-Carb 2910 TR Liquid Scintillation Analyzer (Perkin Elmer, MA, USA).

Data set [4] deals with H^+/OC antiporter. The data set can be described thus: Cellular uptake into hCMEC/D3 cells in absence or presence of pyrilamine or oxycodone. To be noted: triptan 50 µM, asterisks = P level; for Inhibition by oxycodone (of the compound's uptake): 500 µM oxycodone; for Inhibition by pyrilamine (of the compound's uptake): 500 µM pyrilamine. It counts as cell-based, human. The procedure:
as §2
The hCMEC/D3 cells were used for time-dependent uptake studies between passage 3–5 (pyrilamine), 7–9 (oxycodone), 6–8 (almotriptan), and 24–31 (eletriptan).
The hCMEC/D3 cells were used for uptake studies of almotriptan, eletriptan, and sumatriptan in the presence of pyrilamine and oxycodone between passage 21–23.
as §3, §4

In data set [5] the target is T1, P-gp (Homo sapiens, UniProt P08183). The data set can be described thus: Bidirectional transport across IPEC-J2 MDR1 monolayers. The conditions noted are these: pH 7.4.
T1 sequence (P08183 whole entry): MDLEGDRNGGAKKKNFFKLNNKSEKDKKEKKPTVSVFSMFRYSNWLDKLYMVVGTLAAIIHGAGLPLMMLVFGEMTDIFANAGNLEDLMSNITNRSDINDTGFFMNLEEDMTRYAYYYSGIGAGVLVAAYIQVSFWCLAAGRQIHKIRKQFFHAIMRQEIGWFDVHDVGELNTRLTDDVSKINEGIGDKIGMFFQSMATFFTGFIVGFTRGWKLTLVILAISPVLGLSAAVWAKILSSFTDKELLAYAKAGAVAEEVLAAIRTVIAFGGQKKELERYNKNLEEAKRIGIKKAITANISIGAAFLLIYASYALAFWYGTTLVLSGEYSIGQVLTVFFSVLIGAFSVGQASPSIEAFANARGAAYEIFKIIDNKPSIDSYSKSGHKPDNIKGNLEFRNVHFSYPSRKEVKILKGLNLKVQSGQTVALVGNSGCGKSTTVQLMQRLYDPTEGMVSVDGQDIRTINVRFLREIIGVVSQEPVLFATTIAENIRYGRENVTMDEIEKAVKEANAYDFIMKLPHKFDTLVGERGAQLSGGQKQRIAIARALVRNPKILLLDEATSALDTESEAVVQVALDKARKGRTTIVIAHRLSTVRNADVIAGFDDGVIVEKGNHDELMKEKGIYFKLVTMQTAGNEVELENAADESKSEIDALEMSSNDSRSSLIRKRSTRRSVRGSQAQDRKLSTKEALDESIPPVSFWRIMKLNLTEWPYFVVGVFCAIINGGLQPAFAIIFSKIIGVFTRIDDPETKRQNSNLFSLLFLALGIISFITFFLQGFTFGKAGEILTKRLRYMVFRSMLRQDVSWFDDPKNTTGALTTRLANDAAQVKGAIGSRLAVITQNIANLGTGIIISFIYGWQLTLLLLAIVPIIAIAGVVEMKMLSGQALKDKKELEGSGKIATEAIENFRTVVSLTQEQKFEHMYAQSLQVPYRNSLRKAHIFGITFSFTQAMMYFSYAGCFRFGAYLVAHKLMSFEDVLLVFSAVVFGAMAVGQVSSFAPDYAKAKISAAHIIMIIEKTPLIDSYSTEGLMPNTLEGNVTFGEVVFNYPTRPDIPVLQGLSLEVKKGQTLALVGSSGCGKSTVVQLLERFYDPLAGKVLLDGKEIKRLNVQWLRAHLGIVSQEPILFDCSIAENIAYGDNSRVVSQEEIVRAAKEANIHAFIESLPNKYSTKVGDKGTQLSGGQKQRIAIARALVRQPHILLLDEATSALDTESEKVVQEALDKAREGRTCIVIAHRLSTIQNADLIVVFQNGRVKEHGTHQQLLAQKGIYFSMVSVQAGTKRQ
Experimental: The porcine ileum epithelial cell line IPEC-J2 transfected with human MDR1 [37] was maintained in T175-flasks and cultured in Dulbecco's Modified Eagle Medium/Nutrient Mixture F-12, supplemented with 10% (v/v) FBS (SH3008803, ThermoFisher Scientific, MA, USA), 100 U/mL penicillin and 100 μg/mL streptomycin, 2 mM L-glutamine, and 1 mM sodium pyruvate. The culture medium was supplemented with 2 µg/mL puromycin during maintenance. Culture media was changed every second or third day. Cells were passaged using trypsin–EDTA solution 10x (5–10 min, 5% CO2, 37 °C). For experiments, cells were either seeded into 24-well plates (1·10^5 cells/cm^2) and cultured for 2 days or seeded on Transwell® polyester inserts (3460, 1.12 cm^2, pore size 0.4 µm) (3.57·10^4 cells/cm^2) and cultured for 15–17 days. IPEC-J2 MDR1 cells were used for experiments between passage 2–4.
Bidirectional transport studies were conducted using IPEC-J2 MDR1 cell monolayers cultured on semipermeable Transwell® polyester inserts (Corning Inc., NY, USA, 3460, 1.12 cm^2, pore size 0.4 µm). The cells were washed twice with 37 °C hHBSS. […]
The accumulated amount of drug (Q) was calculated for each time-point using Eq. 3.3 Q=Vs∑n-1nCn-1+CnVt where Vs represents the sample volume, Vt the total volume of the receiver compartment, Cn is the concentration of the sample n.
Steady state flux (Jsteady state) was calculated as the slope of the linear part of the accumulated amount (Q) in the receiver compartment as function of time from Eq. 4.4 Jss=ΔQ/Δt·A where t represents time and A is the area of the permeable support.
The apparent permeability (Papp) was calculated from Eq. 5.5 Papp=Jss/Cdonor where Cdonor represents the initial concentration in the donor compartment.
Efflux ratios (ER) were calculated as the ratio of the apparent permeability in the basolateral to apical direction Papp(B-A) and the permeability in the apical to basolateral direction Papp(A-B) using Eq. 6.6 ER=PappB-A/Papp(A-B)
The target of data set [6] is T1, P-gp. Also on record: expressed in transfected cells; host or cells: IPEC-J2 (porcine ileum epithelial cell line); method as in PMID 12438524. The conditions noted are these: MDR1-MDCKII cell line; cited from earlier work.

As to `CN1CCC[C@@H]1Cc1c[nH]c2ccc(CCS(=O)(=O)c3ccccc3)cc12` [Eletriptan], in data set [1], the “Overall charge pH 7.4” value is recorded as “Positive”. Besides, in the data set on H^+/OC antiporter [2] (hCMEC/D3 cells, tested concentration range), the “Concentration-dependent uptake (saturability)” value is “reaching saturation within a 500 µM concentration”. For the same compound, the “Association with H^+/OC antiporter” value in the data set with H^+/OC antiporter [2] (summary of uptake and inhibition studies in hCMEC/D3 cells) was “Substrate potent inhibitor”. Besides, the Jmax with H^+/OC antiporter [2] (uptake into hCMEC/D3 cells) was determined as 2.2 ± 0.7 nmol·min^−1·mg protein^−1. The Km in the data set with H^+/OC antiporter [2] (uptake into hCMEC/D3 cells, read-out: Apparent Km) worked out at 89 ± 38 µM. For the same compound, the IC50 with H^+/OC antiporter [3] (listed as eletriptan) was roughly 15 µM. For the same compound, the IC50 in the data set with H^+/OC antiporter [3] came to 15 ± 4 µM. For the same compound, in the data set on H^+/OC antiporter [4], the “Inhibition by oxycodone (of the compound's uptake)” value was “yes (*)” and the “Inhibition by pyrilamine (of the compound's uptake)” value was “yes (****)”. Moreover, in the data set with H^+/OC antiporter [4] (listed as eletriptan), the “Inhibition by oxycodone (of the compound's uptake)” value is “inhibited the uptake of eletriptan in a statistically significant manner” and the “Inhibition by pyrilamine (of the compound's uptake)” value is “inhibited the uptake of eletriptan in a statistically significant manner; also recorded: almost be completely inhibited”. For the same compound, on P-gp [5], the Papp A→B at 120 min, 50 µM worked out at 0.82 ± 0.05 ×10⁻⁶ cm/s; the Papp B→A at 120 min, 50 µM was determined as 24 ± 2 ×10⁻⁶ cm/s; the efflux ratio at 120 min, 50 µM came to 28.9 ± 1.8. For the same compound, the ER on P-gp [6] is listed as 44.7.
